Laboratory results reported in US5219884A, “Immunosuppressant” (Taito Co., Ltd., priority 1990, dated 1993).
Converted amounts (≈) assume the structure as drawn. Where two headings read alike, the source gives them in different places.

Experiments:
Type in all cases: cell-based
[1] = tested on: IL3-dependent mouse cell line FDC-P2; assay: suppression of IL3-induced proliferation of FDC-P2
Method: IL3-dependent mouse cell line FDC-P2 cells were suspended in the RPMI1640 culture medium supplemented with 10% FCS to the concentration of 2×10^5 cells/ml. One hundred μl of the suspension and 50 μl of the supernatant of the culture of mouse luekemia cells WEHI3 containing IL3 were added to each well of 96-well microculture plates in which 100 μl of the test substance had been placed. After culturing at 37° C. in an atmosphere of 5% carbon dioxide for 20 hours, 0.5 μCi/well of ^3 H-thymidine was added, and cultured for 4 hours under the same conditions. After termination of the culture, the cells were harvested by a cell harvester, and the radioactivity incorporated into the cells was determined by a liquid scintillation counter, and was used as an index of the IL3-dependent proliferation.

[2] = tested on: IL2 production in mouse allogenic MLC; assay: suppression of IL2 production in mouse allogenic MLC
Method: Mouse allogenic MLC was carried out as follows:
The respondor cell suspension and the stimulator cell suspension (0.5 ml each) prepared in the same way as in Experimental Example 1 together with 1 ml of test substance were added to 24-well multidishes, and cultured at 37° C. in an atmosphere of 5% carbon dioxide for 2 days. After termination of the culture, the supernatant was collected and used as the supernatant of mouse allogenic MLC.
The IL2 activity in the supernatants of mouse allogenic MLC and the supernatants of PHA-stimulated mouse spleen cells culture was assayed as follows: IL2-dependent mouse cell line CTLL-2 cells were suspended in the RPMI1640 culture medium supplemented with 30% FCS to the concentration of 10^5 cells/ml, and 100 μl of the suspension was added to each well of 96-well microculture plates in which 100 μl of the supernatant of the MLC described above had been placed. After culturing at 37° C. in an atmosphere of 5% carbon dioxide for 20 hours, 0.5 μCi/well of ^3 H-thymidine was added, and incubated for 4 hours under the same conditions. After termination of the culture, the cells were harvested by a cell harvester, and the radioactivity incorporated into the cells was measured by a liquid scintillation counter. IL2 activity was expressed in U/ml as the titer at various concentrations at which the ^3 H-thymidine incorporation was 50% of the maximum.

[3] = tested on: human allogenic MLR (peripheral blood lymphocytes); assay: human allogenic MLR-suppressive activity
Method: The human allogenic MLR-suppressive activity was assayed as follows:
Human peripheral blood lymphocytes obtained by Ficoll-Paque density gradient centrifugation of normal human peripheral blood were suspended in the RPMI1640 medium supplemented with 10% FCS, placed in plastic dishes, and incubated at 37° C. in an atmosphere of 5% carbon dioxide for 2 hours. After termination of incubation, the supernatant after gentle pipetting was harvested and centrifuged (1000 rpm, for 5 minutes) to obtain plastic-nonadherent cells. The plastic-nonadherent cells were allowed to pass through a nylon-wool column to give nylon-nonadherent cells, and the concentration of the cell suspension was adjusted to 4×10^6 cells/ml by using the RPMI1640 culture medium supplemented with 10% FCS, and used as the responder cell suspension.
The plastic-adherent cells were removed from the plastic dish by vigorous pipetting after addition of phosphate buffered saline supplemented with 5% FCS and 0.02% disodium ethylenediamine-tetraacetic acid (EDTA). The plastic-adherent cells were treated with 40 μg/ml of mitomycin C at 37° C. for 60 minutes, washed three times, and suspended to the concentration of 4×10^6 cells/ml in the RPMI1640 culture medium supplemented with 10% FCS. The resultant suspension was used as the stimulator cell suspension. Fifty μl of the responder cell suspension from the donor A or C was mixed with 50 μl of the stimulator cell suspension from the donor B or D, to which 100 μl of the test substance was added, and cultured at 37° C. in the an atmosphere 5% carbon dioxide for 5 days.
After termination of the culture, 1.0 μCi/well of ^3 H-thymidine was added, and after 18 hours of culture, the cells were harvested by a cell-harvester. The radioactivity incorporated into the cells was measured by a liquid scintillation counter as the index of blastogenic response of lymphocytes in human allogenic MLR. The suppression of human allogenic MLR was evaluated by calculating the percent suppression by the following formula. [formula]

[4] = tested on: IL3 production in PHA-stimulated mouse spleen cells; assay: suppression of IL3 production in PHA-stimulated mouse spleen cells
Method: The supernatant of mouse allogenic MLC and the supernatant of PHA-stimulated mouse spleen cells culture were prepared in the same manner as in Experimental Example 6.
The IL3 activity in the supernatant described above was assayed as follows: IL3-dependent mouse cell line FDC-P2 cells were suspended in the RPMI1640 culture medium supplemented with 10% FCS to the concentration of 10^5 cells/ml, and 100 μl of the suspension was added to each well of 96-well microculture plates in which 100 μl per well of the two-fold serial dilutions of the supernatant described above had been placed. After culturing at 37° C. in an atmosphere of 5% carbon dioxide for 20 hours, 0.5 μCi/well of ^3 H-thymidine was added, and cultured for further 4 hours under the same conditions. After termination of the culture, the cells were harvested by a cell harvester, and the radioactivity incorporated into the cells was measured by a liquid scintillation counter. The IL3 activity was expressed in U/ml as the titer at the concentrations at which the amount of ^3 H-thymidine incorporated was 50% of the maximum.

[5] = Mus musculus, 48 h, read-out: Suppression
[6] = Mus musculus, read-out: Suppression

Structure (SMILES): CCCCCCC(=O)CCCCCC/C=C/CC(O)C(O)C(N)(CO)C(=O)O (centres unmarked) [Example 1]
- 3H-thymidine uptake ([1]; 0.001 μg/ml): 6858 cpm
- 3H-thymidine uptake ([1]; 0.01 μg/ml): 6572 cpm
- 3H-thymidine uptake ([1]; 0.1 μg/ml): 5203 cpm
- 3H-thymidine uptake ([1]; 1 μg/ml): 5029 cpm
- 3H-thymidine uptake ([1]; 10 μg/ml): 2750 cpm
- inhibition at 0.001 µg/mL ([1]; Mus musculus, 24 h, 0.001 μg/ml): 21.5%
- inhibition at 0.01 µg/mL ([1]; Mus musculus, 24 h, 0.01 μg/ml): 25.7%
- inhibition at 0.1 µg/mL ([1]; Mus musculus, 24 h, 0.1 μg/ml): 45.9%
- inhibition at 1 µg/mL ([1]; Mus musculus, 24 h, 1 μg/ml): 48.5%
- inhibition at 10 µg/mL ([1]; Mus musculus, 24 h, 10 μg/ml): 82.1%
- IL2 activity ([2]; 0.01 μg/ml): 4.0 U/ml
- IL2 activity ([2]; 0.1 μg/ml): 2.0 U/ml
- IL2 activity ([2]; 1 μg/ml): 1.1 U/ml
- IL2 activity ([2]; 10 μg/ml): < 1 U/ml
- inhibition at 0.01 µg/mL [2, 5]: 59.2%
- inhibition at 0.1 µg/mL [2, 5]: 79.6%
- inhibition at 1 µg/mL [2, 5]: 88.8%
- inhibition at 10 µg/mL [2, 5]: > 90%
- inhibition at 0.0001 µg/mL ([3]; Homo sapiens, Lymphocyte, donor A/donor B, 0.0001 μg/ml, read-out: Suppression): 51.8%
- inhibition at 0.001 µg/mL ([3]; Homo sapiens, Lymphocyte, donor A/donor B, 0.001 μg/ml, read-out: Suppression): 77.7%
- inhibition at 0.01 µg/mL ([3]; Homo sapiens, Lymphocyte, donor A/donor B, 0.01 μg/ml, read-out: Suppression): 73.3%
- inhibition at 0.1 µg/mL ([3]; Homo sapiens, Lymphocyte, donor A/donor B, 0.1 μg/ml, read-out: Suppression): 79%
- inhibition at 1 µg/mL ([3]; Homo sapiens, Lymphocyte, donor A/donor B, 1 μg/ml, read-out: Suppression): 80.1%
- inhibition at 10 pg/mL ([3]; Homo sapiens, Lymphocyte, donor C/donor D, 0.00001 μg/ml, read-out: Suppression): 37.7%
- inhibition at 0.0001 µg/mL ([3]; Homo sapiens, Lymphocyte, donor C/donor D, 0.0001 μg/ml, read-out: Suppression): 44%
- inhibition at 0.001 µg/mL ([3]; Homo sapiens, Lymphocyte, donor C/donor D, 0.001 μg/ml, read-out: Suppression): 67.9%
- inhibition at 0.01 µg/mL ([3]; Homo sapiens, Lymphocyte, donor C/donor D, 0.01 μg/ml, read-out: Suppression): 74.8%
- inhibition at 0.1 µg/mL ([3]; Homo sapiens, Lymphocyte, donor C/donor D, 0.1 μg/ml, read-out: Suppression): 79.2%
- inhibition at 1 µg/mL ([3]; Homo sapiens, Lymphocyte, donor C/donor D, 1 μg/ml, read-out: Suppression): 76.5%
- inhibition at 10 µg/mL ([3]; Homo sapiens, Lymphocyte, donor C/donor D, 10 μg/ml, read-out: Suppression): 88.8%
- IC50 ([3]; Homo sapiens, Lymphocyte, read-out: 50%-inhibition concentration (IC50)): 0.1 ng/mL (≈ 0.249 nM)
- inhibition at 10 µg/mL ([3]; Homo sapiens, Lymphocyte, read-out: Suppression): 100%
- 3H-thymidine uptake ([3]; donor A/donor B, 0.0001 μg/ml): 12769 cpm
- 3H-thymidine uptake ([3]; donor A/donor B, 0.001 μg/ml): 7190 cpm
- 3H-thymidine uptake ([3]; donor A/donor B, 0.01 μg/ml): 8138 cpm
- 3H-thymidine uptake ([3]; donor A/donor B, 0.1 μg/ml): 6922 cpm
- 3H-thymidine uptake ([3]; donor A/donor B, 1 μg/ml): 6690 cpm
- 3H-thymidine uptake ([3]; donor A/donor B, 10 μg/ml): 1082 cpm
- 3H-thymidine uptake ([3]; donor C/donor D, 0.00001 μg/ml): 10896 cpm
- 3H-thymidine uptake ([3]; donor C/donor D, 0.0001 μg/ml): 9806 cpm
- 3H-thymidine uptake ([3]; donor C/donor D, 0.001 μg/ml): 5646 cpm
- 3H-thymidine uptake ([3]; donor C/donor D, 0.01 μg/ml): 4460 cpm
- 3H-thymidine uptake ([3]; donor C/donor D, 0.1 μg/ml): 3613 cpm
- 3H-thymidine uptake ([3]; donor C/donor D, 1 μg/ml): 4167 cpm
- 3H-thymidine uptake ([3]; donor C/donor D, 10 μg/ml): 2018 cpm
- IL3 activity ([4]; 0.01 μg/ml): 4.0 U/ml
- IL3 activity ([4]; 0.1 μg/ml): < 2 U/ml
- IL3 activity ([4]; 1 μg/ml): < 2 U/ml
- IL3 activity ([4]; 10 μg/ml): < 2 U/ml
- inhibition at 0.01 µg/mL [4, 6]: 76.6%
- inhibition at 0.1 µg/mL [4, 6]: > 90%
- inhibition at 1 µg/mL [4, 6]: > 90%
- inhibition at 10 µg/mL [4, 6]: > 90%
